# Measurements published in patent US20100298141A1, “SUBSTITUTED PYRIDINE N-OXIDE HERBICIDES” (E. I. DU PONT DE NEMOURS AND COMPANY, priority 2007, published 2010).
# Columns and labels:
# redroot pigweed = assay: Test A pre-/postemergence greenhouse test; type: in vivo, Amaranthus retroflexus; conditions: for Plant response rating, Pigweed: 0 to 100 scale where 0 is no effect and 100 is complete control; for Pigweed plant response rating: 0 to 100 scale
# In short: (§1)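 Planting was into mixed loam soil and sand; preemergence treatment followed as a directed soil spray. Concurrently, emerged plants (one- to two-leaf, 2–10 cm) received postemergence applications of identically formulated compound (non-phytotoxic solvent, surfactant). After approximately ten days under greenhouse conditions, injury was judged by eye against untreated plants.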
# umbrella sedge = assay: Test C flooded paddy test; type: in vivo, Cyperus difformis; conditions: Flood
# From the text: (§2) At time of treatment, test pots were flooded to 3 cm above the soil surface, treated by application of test compounds directly to the paddy water, and then maintained at that water depth for the duration of the test. Treated plants and controls were maintained in a greenhouse for 13 to 15 days, after which time all species were compared to controls and visually evaluated. […] A dash (-) response means no test result.
# morningglory = assay: Test A pre-/postemergence greenhouse test; type: in vivo, Ipomoea spp.; conditions: for Plant response rating, Morningglory: 0 to 100 scale where 0 is no effect and 100 is complete control; for Morningglory plant response rating: 0 to 100 scale
# In short: as §1
# crabgrass = assay: Test A pre-/postemergence greenhouse test; type: in vivo, Digitaria sanguinalis; conditions: for Plant response rating, Crabgrass, Large: 0 to 100 scale where 0 is no effect and 100 is complete control; for Crabgrass, Large plant response rating: 0 to 100 scale
# In short: as §1
# duck salad = assay: Test C flooded paddy test; type: in vivo, Heteranthera limosa; conditions: Flood
# From the text: as §2
# velvetleaf = assay: Test A pre-/postemergence greenhouse test; type: in vivo, Abutilon theophrasti; conditions: for Plant response rating, Velvetleaf: 0 to 100 scale where 0 is no effect and 100 is complete control; for Velvetleaf plant response rating: 0 to 100 scale
# In short: as §1
# wheat = assay: Test A pre-/postemergence greenhouse test; type: in vivo, Triticum aestivum; conditions: for Plant response rating, Wheat: 0 to 100 scale where 0 is no effect and 100 is complete control; for Wheat plant response rating: 0 to 100 scale
# In short: as §1
# barnyardgrass [1] = assay: Test A pre-/postemergence greenhouse test; type: in vivo, Echinochloa crus-galli; conditions: for Plant response rating, Barnyardgrass: 0 to 100 scale where 0 is no effect and 100 is complete control; for Barnyardgrass plant response rating: 0 to 100 scale
# In short: as §1
# giant foxtail = assay: Test A pre-/postemergence greenhouse test; type: in vivo, Setaria faberi; conditions: for Plant response rating, Foxtail, Giant: 0 to 100 scale where 0 is no effect and 100 is complete control; for Foxtail, Giant plant response rating: 0 to 100 scale
# In short: as §1
# rice = assay: Test C flooded paddy test; type: in vivo, Oryza sativa; conditions: Flood
# From the text: as §2
# corn = assay: Test A pre-/postemergence greenhouse test; type: in vivo, Zea mays; conditions: for Plant response rating, Corn: 0 to 100 scale where 0 is no effect and 100 is complete control; for Corn plant response rating: 0 to 100 scale
# In short: as §1
# barnyardgrass [2] = assay: Test C flooded paddy test; type: in vivo, Echinochloa crus-galli; conditions: Flood
# From the text: as §2
# [3] = Postemergence, 500 g ai/ha, 0 is no effect, 100 is complete control
# [4] = Preemergence, 125 g ai/ha, 0 no effect, 100 complete control
# [5] = 62 g ai/ha, scale 0 to 100 (0 no effect, 100 complete control)
# [6] = 250 g ai/ha, scale 0 to 100, 0 no effect, 100 complete control, 13 to 15 days
SMILES,"Plant response rating, Pigweed (redroot pigweed; Postemergence, 125 g ai/ha)",Pigweed plant response rating (redroot pigweed; [3]),Pigweed plant response rating (redroot pigweed; [4]),"Plant response rating, Pigweed (redroot pigweed; Preemergence, 500 g ai/ha)","Plant response rating, Sedge, Umbrella (umbrella sedge; [5])","Plant response rating, Sedge, Umbrella (umbrella sedge; [6])","Plant response rating, Morningglory (morningglory; Postemergence, 125 g ai/ha)",Morningglory plant response rating (morningglory; [3]),Morningglory plant response rating (morningglory; [4]),"Plant response rating, Morningglory (morningglory; Preemergence, 500 g ai/ha)","Plant response rating, Crabgrass, Large (crabgrass; Postemergence, 125 g ai/ha)","Crabgrass, Large plant response rating (crabgrass; [3])","Crabgrass, Large plant response rating (crabgrass; [4])","Plant response rating, Crabgrass, Large (crabgrass; Preemergence, 500 g ai/ha)","Plant response rating, Ducksalad (duck salad; [5])","Plant response rating, Ducksalad (duck salad; [6])","Plant response rating, Velvetleaf (velvetleaf; Postemergence, 125 g ai/ha)",Velvetleaf plant response rating (velvetleaf; [3]),Velvetleaf plant response rating (velvetleaf; [4]),"Plant response rating, Velvetleaf (velvetleaf; Preemergence, 500 g ai/ha)",other results
Cn1nc(OC(F)F)c(C[S+]([O-])c2cccc[n+]2[O-])c1C(F)(F)F (centres unmarked) [Compound 74],50,60,60,70,0,50,40,80,20,90,40,80,60,90,70,65,20,70,0,60,"Plant response rating, Wheat (wheat; Postemergence, 125 g ai/ha): 20; Wheat plant response rating (wheat; [3]): 60; Wheat plant response rating (wheat; [4]): 0; Plant response rating, Wheat (wheat; Preemergence, 500 g ai/ha): 90; Plant response rating, Barnyardgrass (barnyardgrass [1]; Postemergence, 125 g ai/ha): 50; Barnyardgrass plant response rating (barnyardgrass [1]; [3]): 80; Barnyardgrass plant response rating (barnyardgrass [1]; [4]): 70; Plant response rating, Barnyardgrass (barnyardgrass [1]; Preemergence, 500 g ai/ha): 90; Plant response rating, Foxtail, Giant (giant foxtail; Postemergence, 125 g ai/ha): 60; Foxtail, Giant plant response rating (giant foxtail; [3]): 90; Foxtail, Giant plant response rating (giant foxtail; [4]): 80; Plant response rating, Foxtail, Giant (giant foxtail; Preemergence, 500 g ai/ha): 90; Plant response rating, Rice (rice; [5]): 10; Plant response rating, Rice (rice; [6]): 10; Plant response rating, Corn (corn; Postemergence, 125 g ai/ha): 0; Corn plant response rating (corn; [3]): 60; Corn plant response rating (corn; [4]): 0; Plant response rating, Corn (corn; Preemergence, 500 g ai/ha): 80; Plant response rating, Barnyardgrass (barnyardgrass [2]; [5]): 15; Plant response rating, Barnyardgrass (barnyardgrass [2]; [6]): 30"
Cn1nc(C(F)(F)C(F)(F)F)c(CS(=O)(=O)c2cccc[n+]2[O-])c1OCC(F)(F)F [Compound 84],40,70,60,100,75,100,20,70,70,90,70,80,60,90,75,85,20,70,70,100,"Plant response rating, Wheat (wheat; Postemergence, 125 g ai/ha): 30; Wheat plant response rating (wheat; [3]): 60; Wheat plant response rating (wheat; [4]): 40; Plant response rating, Wheat (wheat; Preemergence, 500 g ai/ha): 100; Plant response rating, Barnyardgrass (barnyardgrass [1]; Postemergence, 125 g ai/ha): 70; Barnyardgrass plant response rating (barnyardgrass [1]; [3]): 80; Barnyardgrass plant response rating (barnyardgrass [1]; [4]): 90; Plant response rating, Barnyardgrass (barnyardgrass [1]; Preemergence, 500 g ai/ha): 100; Plant response rating, Foxtail, Giant (giant foxtail; Postemergence, 125 g ai/ha): 70; Foxtail, Giant plant response rating (giant foxtail; [3]): 80; Foxtail, Giant plant response rating (giant foxtail; [4]): 80; Plant response rating, Foxtail, Giant (giant foxtail; Preemergence, 500 g ai/ha): 100; Plant response rating, Rice (rice; [5]): 30; Plant response rating, Rice (rice; [6]): 65; Plant response rating, Corn (corn; Postemergence, 125 g ai/ha): 0; Corn plant response rating (corn; [3]): 40; Corn plant response rating (corn; [4]): 0; Plant response rating, Corn (corn; Preemergence, 500 g ai/ha): 30; Plant response rating, Barnyardgrass (barnyardgrass [2]; [5]): 15; Plant response rating, Barnyardgrass (barnyardgrass [2]; [6]): 60"
